Reference: patent US20220282304A1, “SAME-SAMPLE ANTIBIOTIC SUSCEPTIBILITY TEST AND RELATED COMPOSITIONS, METHODS AND SYSTEMS” (CALIFORNIA INSTITUTE OF TECHNOLOGY, priority 2021, published 2022)

Tested on: Escherichia coli K12
Assay: Digital same-sample filtration AST at four cell densities (Example 7)
Assay type: cell-based
Conditions: for treated condition EINAPV (fraction extracellular): untreated EINAPV 0; for Both (number of wells) / Empty (number of wells) / Extracellular only (number of wells) / Intracellular only (number of wells): 60 minutes 37° C., qPCR
Experimental: The inoculum was small enough that no detectable difference in the sample's optical density at 600 mm (OD600) was detectable by a spectrophotometer with a sensitivity of 0.01 absorbance units. After an incubation at 37° C., the media became turbid with an OD600 of 0.22 absorbance units after 2.25 hours of incubation.
In this experiment, the number and volume of sample partitions was restricted, for logistical reasons, to 96 partitions 10 μL in volume, specifically the wells of a 96-well plate. A goal was chosen of having a >98% chance of ending up with at least 48 empty partitions. When all partitions are the same volume, the following formula relates the expected number of empty partitions, the partition volume, and the density of cells.
N is the total number of partitions, n is the number of empty partitions, V is the partition volume, D is the density of cells, and t is a threshold probability chosen by the practitioner. Thus, in order to achieve digital sample partitioning with the available 96-well plate, each 10 μL sample of the specimen practically contains between 0.02 and 2.5 cells on average. In this experiment, densities of 0, 0.5, 1, and 2 cells per sample were targeted. Due to systematic bias in the conversion of OD600 to cell density, the actual densities achieved were closer to 0, 0.09375, 0.1875, and 0.375 cells per sample. The specimen itself was diluted to a density of 37.5 CFU/mL (0.0375 cells/μL), 18.75 CFU/mL, and 9.375 CFU/mL to achieve the target sample densities. For the 0 cell samples, the specimen comprised sterile media.
To begin the AST protocol, the 4 contrived clinical specimen dilutions were physically split into the 24 partitions each by transferring 10 μL of the sample, in 24 separate transfers (actually 3 transfers with a multichannel pipette of each dilution), to wells of a 96-well microtiter plate. Each well contained 15 μL of Mueller-Hinton Broth (MHB) growth media. Half of the wells (48) contained 0 μg/mL of dissolved ETP antibiotic and served as reference condition antibiotic exposures. The other half of the wells contained 1.67 μg/mL of ETP (for a final concentration of 1.0 μg/mL) and served as 48 treated condition antibiotic exposures. Thus, in total there were 8 groups of 12 replicate wells: a treated and an untreated group of wells for each of the four specimen dilutions. In actuality, however, due to operator error, 4 treated 0 cell conditions and 4 untreated 0 cell conditions were converted into the corresponding 0.1875 cell conditions.
The 96 antibiotic exposures were incubated at 37° C. for 60 minutes.
The entire volume of each antibiotic exposure was transferred to a Millipore® 96-well sterile polystyrene MultiScreenHTS® filter plate (Millipore-Sigma MSGVS2210). Each well of the filter plate contained a hydrophilic polyvinylidene fluoride (PVDF) filter membrane with a 0.22 μm pore size. A 96-well polypropylene microtiter plate was affixed to the bottom of the filter plate. At approximately 78 minutes after the start of the exposure, the antibiotic exposures were centrifuged at 2200 relative centrifugal force to speed the passage of the antibiotic exposure through the filter and into 96-well microtiter plate. The collected fluid was called the “filtrate.” It is expected that the filtrate will contain all or most of the extracellular nucleic acids present in the antibiotic exposure, but none of the intracellular nucleic acids in the antibiotic exposure.
As soon as possible (e.g. 0-10 minutes) after the centrifugation of the filter plate, […] of fresh MHB media was spun through the filters after the first centrifugation (above) to wash away residual extracellular nucleic acids present in the small amount (about 3 μL) of fluid wetting the filters. This wash fluid is not collected with the filtrates.
The filtrates were frozen at −80° C. to prevent hypothetical rRNA degradation. Lucigen DNA Extraction Buffer was not used to “extract” the filtrate DNA. […]

[1] = Treated 1.0 μg ETP/mL, batch culture dilution 0 cells, 8 partitions
[2] = Treated 1.0 μg ETP/mL, batch culture dilution 0.09375 cells, 12 partitions
[3] = Treated 1.0 μg ETP/mL, batch culture dilution 0.1875 cells, 16 partitions
[4] = Treated 1.0 μg ETP/mL, batch culture dilution 0.375 cells, 12 partitions
[5] = Treated 1.0 μg ETP/mL, batch culture dilution 0 cells
[6] = Treated 1.0 μg ETP/mL, batch culture dilution 0.09375 cells
[7] = Treated 1.0 μg ETP/mL, batch culture dilution 0.1875 cells
[8] = Treated 1.0 μg ETP/mL, batch culture dilution 0.375 cells

SMILES: C[C@@H](O)[C@H]1C(=O)N2C(C(=O)O)=C(S[C@@H]3CN[C@H](C(=O)Nc4cccc(C(=O)O)c4)C3)[C@H](C)[C@H]12 [ETP, ertapenem]
- treated condition EINAPV (fraction extracellular) (1.0 μg/mL ETP, non-zero dilution 0.09375 cells): 1
- treated condition EINAPV (fraction extracellular) (1.0 μg/mL ETP, non-zero dilution 0.1875 cells): 1
- treated condition EINAPV (fraction extracellular) (1.0 μg/mL ETP, non-zero dilution 0.375 cells): 1
- susceptibility call (measured TRPQ higher than APTV) (1.0 μg/mL ETP, one pooled treated vs one pooled reference condition): susceptible
- susceptibility call (binomial exact test) (1.0 μg/mL ETP, significance threshold 0.001): susceptible
- Both (number of wells) [1]: 0
- Empty (number of wells) [1]: 8
- Extracellular only (number of wells) [1]: 0
- Intracellular only (number of wells) [1]: 0
- Both (number of wells) [2]: 0
- Empty (number of wells) [2]: 10
- Extracellular only (number of wells) [2]: 2
- Intracellular only (number of wells) [2]: 0
- Both (number of wells) [3]: 0
- Empty (number of wells) [3]: 13
- Extracellular only (number of wells) [3]: 3
- Intracellular only (number of wells) [3]: 0
- Both (number of wells) [4]: 0
- Empty (number of wells) [4]: 2
- Extracellular only (number of wells) [4]: 10
- Intracellular only (number of wells) [4]: 0
- Intact (expected number of cells) [5]: 0
- Killed (expected number of cells) [5]: 0
- Intact (expected number of cells) [6]: 0
- Killed (expected number of cells) [6]: 2.14
- Intact (expected number of cells) [7]: 0
- Killed (expected number of cells) [7]: 3.32
- Intact (expected number of cells) [8]: 0
- Killed (expected number of cells) [8]: 15.69
- estimated cells lysed, all treated samples pooled (Treated 1.0 μg ETP/mL, sum over dilutions, rounded to 21 lysis events): 21.25
